These results are taken from patent publication US4908138A (priority 1987, dated 1990).

Assay [1] can be described thus: Inhibition of conversion of calcium hydrogen phosphate into hydroxyl apatite (protons released). Particulars: protons released in a calcium phosphate solution supersaturated at 60° C. As for the experimental part: A crucial step in the formation of tartar is the conversion of calcium hydrogen phosphate into hydroxyl apatite. […] To this end, the degree of inhibition of this conversion was measured by determining the protons released in a calcium phosphate solution supersaturated at 60° C. in accordance with the following equation: […]

A short description of assay [2]: Hampshire test (calcium complexing power). It counts as physicochemical. The following applies: pH 11; titrated with 0.2 molar calcium chloride until it remained cloudy; used as tetrasodium salt, converted for the pure diphosphonic acid. The procedure:
The calcium complexing power was determined by the Hampshire test in which the hydroxyacetonitrile diphosphonic acid, to which Na2 CO3 has been added, was titrated with a 0.2 molar calcium chloride solution at pH 11 until it remained cloudy. Hydroxyacetonitrile diphosphonic acid was used in the form of its tetrasodium salt and the measured values obtained were converted for the pure diphosphonic acid.

Assay [3] is described as follows: Reduction of the solubility of synthetic apatite after treatment. The following applies: pH 5, consumption of lactic acid; comparison with untreated apatite. As for the experimental part:
The hydroxyacetonitrile diphosphonic acid of the invention effectively reduces the solubility of apatite by absorbing it on the tartar surface. To determine this property, the solubility of synthetic apatite after treatment with the hydroxyacetonitrile diphosphonic acid is determined by comparison with untreated apatite. To this end, a suspension of apatite is kept at pH 5 by neutralizing the hydroxyl ions passing into solution with lactic acid and determining the consumption of acid required for this purpose.

SMILES strings stand for the structures.

With `O=P(O)(O)C(O)P(=O)(O)O` [Hydroxymethane diphosphonic acid], the “degree of inhibition of conversion of calcium hydrogen phosphate into hydroxyl apatite” value in assay [1] stood at 81%.

As for `O=P(O)(O)C(O)P(=O)(O)O` [drawing 8], in assay [2], the calcium complexing power is on record as 130 mg CaCO3 /g acid.

As to `CC(O)(P(=O)(O)O)P(=O)(O)O`, the “Reduction of the solubility of apatite” value in assay [3] turned out to be 53%.

As to `N#CC(O)(P(=O)(O)O)P(=O)(O)O` [Hydroxyacetonitrile diphosphonic acid, hydroxyacetonitrile diphosphonic acid], the “Reduction of the solubility of apatite” value in assay [3] worked out at 65%. Also, the “degree of inhibition of conversion of calcium hydrogen phosphate into hydroxyl apatite” value in assay [1] was determined as 91%. Besides, in assay [2], the calcium complexing power is on record as 520 mg CaCO3 /g acid.
